Test results published in article PMC4775916 (Antimicrobial Agents and Chemotherapy, 2016).
Values joined by “and” are separate entries in the source; they are usually repeats but may differ in a detail not shown here. Equal entries are not always repeated. Where two headings read alike, the source gives them in different places.

Key:
VIM-2 [1] = biological target: T1, VIM-2 (Escherichia coli, UniProt Q5U7L7); assay: 1H CPMG NMR binding assay (thiomandelic acid reporter ligand displacement); conditions: 50 μM thiomandelic acid, 50 μM enzyme, 50 mM Tris-D11 pH 7.5, read-out: KD app VIM-2
T1 construct: His6 (N, cleaved yes); made in house
Method: (§1) Binding assays were carried out using ^1H-edited Carr-Purcell-Meiboom-Gill (CPMG) nuclear magnetic resonance (NMR) analyses. Spectra were recorded by using a Bruker AVIII 600-MHz NMR spectrometer equipped with a BB-F/^1H Prodigy N2 cryoprobe using 3-mm Match NMR tubes (Cortectnet). The PROJECT-CPMG sequence (90°x-[τ-180°y-τ-90°y-τ-180°y-τ]n-acq) was applied, and water suppression was achieved by presaturation. […] Assays were conducted using 50 mM Tris-D11 (pH 7.5) supplemented with 0.02% NaN3 in 90% H2O and 10% D2O. Equilibrium dissociation constant (KD) measurements for the reporter ligand (50 μM thiomandelic acid) and inhibitors (0 to 300 μM) were carried out as previously reported ([43]). Data were processed with Bruker 3.1 software and fitted by using Origin Pro8.5.1 (see Table S5 in the supplemental material).
(§2) *Apparent kinetic parameters were reported for ampicillin and ceftazidime hydrolysis. #C-terminal His -tagged […]
(§3) VIM-1 was used for kinetic analyses.
(§4) Table S5. Apparent KD curve fitting for the binding of inhibitors (1) and (2) to VIM-2 and […]
(§5) Apparent KD fitting as monitored by 1H CPMG NMR spectra of the signal recovery of thiomandelic acid (50 μM) upon addition of increasing concentrations of 1 and 2 with a final enzyme concentration of 50 μM VIM-2/VIM-5. Assays were conducted in 50 mM Tris-D11 (pH […]
(§6) (also on this page, place not known: K D Tris-D 11 His6-tagged V0 (µM/ s) NN OHO % thiomandelic acid displacement µM % thiomandelic acid displacement) […]

VIM-5 [2] = biological target: T2, VIM-5 (Pseudomonas aeruginosa, UniProt A0A0F7KYQ8, A128K/E202A/H201L/K257T/S205R); assay: as above
T2 construct: His6 with HRV3C cleavage site (pET-28a) (N, cleaved yes); made in house; host or cells: E. coli BL21(DE3)
Method: as §1, §2, §3, §4, §5, §6

VIM-4 [3] = biological target: T3, VIM-4 (Pseudomonas aeruginosa, UniProt A0A0F7KYQ8, S205R); assay: Inhibition of enzyme-mediated nitrocefin hydrolysis; type: biochemical; conditions: for IC50: read-out: IC50 VIM-4 (H224, R228); on IC50 VIM-4 (H224, R228): 10 min preincubation
T3 construct: His6 (N, cleaved yes); made in house
Method: (§7) Inhibitors were prepared as reported previously ([36], [41]). Enzyme-mediated hydrolysis of nitrocefin was monitored by determining the changes in absorbance at 495 nm, as previously described ([36], [37]). Residual activities were first determined at a 100 μM inhibitor concentration. […] The residual activities were obtained at increasing inhibitor concentrations (0.2 to 2,000 μM); the data were analyzed using GraphPad Prism 5.01 software.

VIM-2 [4] = biological target: T1, VIM-2; assay: as above; type: biochemical; conditions: read-out: IC50 VIM-2 (Y224, R228)
Method: as §7

VIM-38 [5] = biological target: T4, VIM-38 (Pseudomonas aeruginosa, UniProt A0A0F7KYQ8, A128K/A265V/E202A/H201L/K257T/S205R); assay: as above; type: biochemical
T4 construct: The N- and C- terminal residues of the mature enzymes are labelled 26; His6 with HRV3C cleavage site (pET-28a) (N, cleaved yes); made in house; host or cells: E. coli BL21(DE3)
Method: as §7

VIM-5 [6] = biological target: T2, VIM-5; assay: as above; type: biochemical
Method: as §7

VIM-1 [7] = biological target: T5, VIM-1 (Pseudomonas aeruginosa, UniProt A0A0F7KYQ8); assay: as above; type: biochemical; conditions: read-out: IC50 VIM-1 (H224, S228)
T5 construct: The N- and C- terminal residues of the mature enzymes are labelled 26; made in house
Method: as §7

VIM-38 [8] = assay: as above; type: biochemical; conditions: VIM-38 versus VIM-1
Method: as §7

VIM-5 [9] = assay: as above; type: biochemical; conditions: VIM-5 versus VIM-1
Method: as §7

VIM-2 [10] = assay: as above; type: biochemical; conditions: VIM-2 versus VIM-5 and VIM-38
Method: as §7

VIM-38 [11] = biological target: T4, VIM-38; assay: Steady-state kinetics of β-lactam substrate hydrolysis; type: biochemical; conditions: 50 mM HEPES pH 7.2, apparent for ampicillin and ceftazidime; for Km: read-out: Mean Km ± SD VIM-38
Method: (§8) The hydrolysis of a representative panel of β-lactam substrates was monitored at their respective absorbance wavelengths. The wavelengths and extinction coefficients used were previously described ([34]). The assays were carried out using 50 mM HEPES buffer (pH 7.2) supplemented with 1 μg/ml bovine serum albumin (BSA), 1 μM ZnSO4, and 0.01% Triton X-100. In the case of VIM-1, C-terminally His6-tagged VIM-1 was used for kinetic analyses. Note that no differences were observed between the activities of untagged VIM-1 and C-terminally His6-tagged VIM-1 for the selected antibiotics (data not shown). The initial rates were obtained from the changes in absorbance at various substrate concentrations. Steady-state kinetic parameters (Km and kcat) were determined by fitting the initial velocity data to the Michaelis-Menten equation using GraphPad Prism 5.01 software (see Table S4 in the supplemental material).

VIM-5 [12] = biological target: T2, VIM-5; assay: as above; type: biochemical; conditions: 50 mM HEPES pH 7.2, apparent for ampicillin and ceftazidime; for Km: read-out: Mean Km ± SD VIM-5
Method: as §8

VIM-4 [13] = biological target: T3, VIM-4; assay: Nitrocefin hydrolysis kinetics before thermal denaturation and after refolding; type: biochemical
Method: (§9) Circular dichroism (CD) analyses were carried out using a Chirascan CD spectrophotometer (Applied Photophysics) equipped with a Peltier temperature-controlled cell holder. CD measurements were collected in the range of 185 to 260 nm; spectra were baseline corrected and smoothed using a Savitzky-Golay filter. Data were normalized at 207 nm to account for differences in protein concentrations ([38]), and the estimation of secondary structure content was performed with Dichro Web ([39]) using the CONTIN Analysis Programme (reference set 6) ([40]). Melting temperatures (Tm) of the recombinant enzymes were determined by monitoring temperature-induced changes in the CD signal at 222 nm. The temperature was increased by 1°C per min, and the CD signal was recorded at temperatures ranging from 25°C to 92°C. The samples were then cooled from 92°C to 25°C at the same rate, and a CD spectrum of the refolded proteins was determined. The activity of the enzymes was recorded before thermal denaturation and after refolding by monitoring nitrocefin hydrolysis. The thermal denaturation data were fitted to a Boltzmann sigmoidal curve by using GraphPad Prism 5.0 software. CD spectra and thermal denaturation curves are shown in Fig. 2 and in Tables S2 and S3 in the supplemental material.

VIM-2 [14] = biological target: T1, VIM-2; assay: as above; type: biochemical
Method: as §9

VIM-38 [15] = biological target: T4, VIM-38; assay: as above; type: biochemical
Method: as §9

VIM-5 [16] = biological target: T2, VIM-5; assay: as above; type: biochemical
Method: as §9

VIM-1 [17] = biological target: T5, VIM-1; assay: as above; type: biochemical
Method: as §9

VIM-38 [18] = assay: Steady-state kinetics of β-lactam substrate hydrolysis; type: biochemical; conditions: VIM-38 versus VIM-1
Method: as §8

VIM-5 [19] = assay: as above; type: biochemical; conditions: VIM-5 versus VIM-1
Method: as §8

VIM-1 [20] = biological target: T5, VIM-1; assay: as above; type: biochemical; conditions: C-terminally His6-tagged VIM-1; 50 mM HEPES pH 7.2; apparent for ampicillin and ceftazidime
Method: as §8

VIM-2 [21] = test system: VIM-2; set-up: method as in Poirel et al. (5); conditions: previous studies ref Poirel et al. (5), cited from earlier work
VIM-1 [22] = biological target: T5, VIM-1; conditions: previous studies ref Franceschini et al. (4), cited from earlier work
VIM-2 [23] = type: biochemical; conditions: VIM-2 versus VIM-1
Method: as §8

VIM-5 [24] = test system: VIM-5; set-up: method as in Garcar et al. (6); conditions: previous studies ref Garcar et al. (6), cited from earlier work

Compound O=C(N[C@@H](Cc1c[nH]c2ccccc12)C(=O)O)c1nc(Cl)c2ccccc2c1O [compound 2] has a Kd (VIM-2 [1]) of 330 µM, a Kd (VIM-5 [2]) of 180 µM and an IC50 (VIM-4 [3]) of 600 µM. It also gave an IC50 (VIM-2 [4]) of 300 µM, an IC50 (VIM-38 [5]) of 80 µM and an IC50 (VIM-5 [6]) of 50 µM. The IC50 (VIM-1 [7]) was 60 µM.

For O=C(N[C@H](Cc1c[nH]c2ccccc12)C(=O)O)c1nc(Cl)c2ccccc2c1O [compound 1], the Kd (VIM-2 [1]) was 180 µM, the Kd (VIM-5 [2]) was 140 µM and the “fold-higher IC50 of VIM-4 than VIM-5 and VIM-38” value (VIM-4 [3]; VIM-4 versus VIM-5 and VIM-38) was over 40 fold. For the same compound, the IC50 (VIM-4 [3]) was 200 µM, the “better inhibitor of VIM-38 than VIM-1 (IC50 ratio)” value (VIM-38 [8]) was over 500 fold and the “better inhibitor of VIM-5 than VIM-1 (IC50 ratio)” value (VIM-5 [9]) was over 500 fold. The IC50 (VIM-2 [4]) was 90 µM, the IC50 (VIM-38 [5]) was 2 µM and the IC50 (VIM-5 [6]) was 2 µM. The “fold-higher IC50 of VIM-2 than VIM-5 and VIM-38” value (VIM-2 [10]) was over 40 fold and the IC50 (VIM-1 [7]) was over 1000 µM.

In the case of O=C(Cc1cccs1)N[C@@H]1C(=O)N2C(C(=O)O)=C(/C=C/c3ccc([N+](=O)[O-])cc3[N+](=O)[O-])CS[C@H]12 [Nitrocefin], the “kcat VIM-38” value (VIM-38 [11]) is reported as 720 s⁻¹, the Km (VIM-38 [11]) is reported as 70 ± 10 µM and the “kcat VIM-5” value (VIM-5 [12]) is reported as 420 s⁻¹. For the same compound, the Km (VIM-5 [12]) was 50 ± 5 µM, the “kcat VIM-4 after refolding” value (VIM-4 [13]; after refolding) was 180 s⁻¹ and the Km (VIM-4 [13]; after refolding, read-out: Km VIM-4 after refolding) was 30 ± 2 µM. The “kcat VIM-4 pre-heating” value (VIM-4 [13]; pre-heating) was 340 s⁻¹, the Km (VIM-4 [13]; pre-heating, read-out: Km VIM-4 pre-heating) was 45 ± 1 µM and the “kcat VIM-2 after refolding” value (VIM-2 [14]; after refolding) was 290 s⁻¹. The Km (VIM-2 [14]; pre-heating) was 13 ± 1 µM, the “kcat VIM-2 pre-heating” value (VIM-2 [14]; pre-heating) was 290 s⁻¹ and the “kcat VIM-38 pre-heating” value (VIM-38 [15]; pre-heating) was 690 s⁻¹. The Km (VIM-38 [15]; read-out: Km VIM-38 after refolding, after refolding) was 40 ± 4 µM, the Km (VIM-38 [15]; read-out: Km VIM-38 pre-heating, pre-heating) was 55 ± 6 µM and the “kcat VIM-5 after refolding” value (VIM-5 [16]; after refolding) was 100 s⁻¹. The Km (VIM-5 [16]; after refolding, read-out: Km VIM-5 after refolding) was 11 ± 1 µM, the “kcat VIM-5 pre-heating” value (VIM-5 [16]; pre-heating) was 210 s⁻¹ and the Km (VIM-5 [16]; pre-heating, read-out: Km VIM-5 pre-heating) was 45 ± 3 µM. For the same compound, the “kcat VIM-1 after refolding” value (VIM-1 [17]; after refolding) was 12 s⁻¹ and the “kcat VIM-1 pre-heating” value (VIM-1 [17]; pre-heating) was 25 s⁻¹.

For CO[C@@]1(NC(=O)Cc2cccs2)C(=O)N2C(C(=O)O)=C(COC(N)=O)CS[C@@H]21 [Cefoxitin], the “fold increase in kcat/Km of VIM-38 over VIM-1” value (VIM-38 [18]) was over 7 fold, the “fold-higher kcat of VIM-38 than VIM-1” value (VIM-38 [18]) was over 10 fold and the “fold increase in kcat/Km of VIM-5 over VIM-1” value (VIM-5 [19]) was over 7 fold. The “fold-higher kcat of VIM-5 than VIM-1” value (VIM-5 [19]) was over 10 fold, the “kcat VIM-38” value (VIM-38 [11]) was 340 s⁻¹ and the Km (VIM-38 [11]) was 230 ± 60 µM. For the same compound, the “kcat VIM-5” value (VIM-5 [12]) was 460 s⁻¹ and the Km (VIM-5 [12]) was 320 ± 60 µM.

With C[C@@H](O)[C@H]1C(=O)N2C(C(=O)O)=C(SCCN=CN)C[C@H]12 [Imipenem] the “kcat VIM-38” value (VIM-38 [11]) was 90 s⁻¹, the Km (VIM-38 [11]) was 150 ± 20 µM and the “kcat VIM-5” value (VIM-5 [12]) was 58 s⁻¹ and 60 s⁻¹. For the same compound, the Km (VIM-5 [12]) was 58 µM and 60 µM, the “kcat VIM-1” value (VIM-1 [20]) was 30 s⁻¹ and the “kcat VIM-2 (previous study)” value (VIM-2 [21]) was 9.9 s⁻¹. The Km (VIM-2 [21]; read-out: Km VIM-2 (previous study)) was 10 µM, the “kcat VIM-1 (previous study)” value (VIM-1 [22]) was 2 s⁻¹ and the Km (VIM-1 [22]; read-out: Km VIM-1 (previous study)) was 1.5 µM. For the same compound, the “fold increase in kcat/Km of VIM-2 compared to VIM-1” value (VIM-2 [23]) was 6 fold, the “kcat VIM-5 (previous study)” value (VIM-5 [24]) was 3.5 s⁻¹ and the Km (VIM-5 [24]; read-out: Km VIM-5 (previous study)) was 12 µM.
